These results are taken from patent US20250326799A1, “AGENTS INDUCING VASCULARISATION” (Coegin Pharma AB, priority 2022, published 2025).

Test [1] relates to human umbilical vascular endothelial cells (HUVECs). Kind of test: Low-oxygen induced apoptosis, active caspase-3/-7, HUVECs. In kind it is cell-based. The protocol:
The impact of FOL-026 peptide on human umbilical vascular endothelial cells (HUVECs) proliferation (FIG. 18a) and apoptosis (FIG. 18c) induced with low-oxygen condition was determined by BrdU uptake (n=8-9 per group) and active caspase-3/-7 (n=7-10 per group) separately. The ROS level (FIG. 18b) activated by 50 ug/ml oxidized Low-density Lipoprotein (oxLDL) for 2 hours in cells pre-incubated with FOL-026 peptides was assessed using H2O2 measurement (n=4-8 per group). Representative pictures of endothelial migration into an in vitro scratch injury were shown (FIG. 19a) and the wound closure rate (FIG. 19b) in HUVECs stimulated with increasing concentration of FOL-026 peptide was quantified by image J software (n=8-9 per group). Scale bar=150 um. Data are presented as means±SEM and acquired from 3 to 4 independent replicate tests. *P<0.05, **P<0.01, ****P<0.0001 by one-way ANOVA and Dunnett's post-hoc test.
The efficiency of small interfering RNA transfection for 48 hours in HUVECs was confirmed by qRT-PCR (n=4) (FIG. 22a). […]

The test system of test [2] is human coronary smooth muscle cells (HCASMCs). Kind of test: Low-oxygen induced apoptosis, active caspase-3/-7, smooth muscle cells. In kind it is cell-based. The protocol:
The effect of FOL-026 peptide treatment on smooth muscle cell proliferation (FIG. 25a) and apoptosis (FIG. 25c) induced with low-oxygen condition was evaluated with the uptake of BrdU (n=10 per group) and active caspase-3/-7 (n=6-8 per group) separately. H2O2 measurement (FIG. 25b) of smooth muscle cells pre-incubated with FOL-26 peptides after 50 ug/ml oxidized Low-density Lipoprotein (oxLDL) stimulation for 2 hours (n=6-7 per group). Representative images of scratch wound assay in vitro are shown (FIG. 26a) and the ability of wound healing (FIG. 26b) in human coronary smooth muscle cells (HCASMCs) treated with FOL-026 peptides was measured by image J software (n=10 per group). Scale bar=150 um. Data are presented as means±SEM and acquired from 3 to 4 independent replicate tests. *P<0.05, **P<0.01, ***P<0.001, ****P<0.0001 by one-way ANOVA and Dunnett's post-hoc test.

Regarding VDTYDGGISVVYGLR [FOL-026], in test [1] (HUVECs transfected with siRNA-NC or siNRP-1), the “cell apoptosis at 0.1% oxygen after NRP-1 knock-down (active caspase-3/-7)” value is listed as “blocks the effect”. Moreover, the “low oxygen induced apoptosis (active caspase-3/-7)” value in test [1] (HUVECs, low-oxygen condition) is recorded as “alleviates the effect of low oxygen induced apoptosis”. Also, the “smooth muscle cell apoptosis induced with low-oxygen condition (active caspase-3/-7)” value in test [2] is listed as “inhibits apoptosis”.
